For series [1] the following is noted: cited from earlier work.
Series [2] in a line: Skin penetration study, Franz diffusion apparatus, transport across human epidermis in vitro. In kind it is in vitro ADME. The settings on record: binary system with a cell-envelope disordering compound versus standard vehicle/solvent; heat-separated abdominal epidermis, about 31°C. The text has this:
The following data illustrate the effects of incorporating 9-(2-hydroxyethoxymethyl) guanine into a standard vehicle/sol- vent versus the same pharmaceutical active used in a binary system with a cell-envelope disordering compound.
The above data reflect relative transport of 9-(2-hydroxyethoxymethyl) guanine across human epidermis in vitro.
In the above skin penetration studies, human skin, (heat- separated abdominal epidermis, taken at autopsy), was placed in a standard Franz diffusion apparatus (Crown Glass Co., Somerville, N.J.) in a horizontal position between a lower, capped diffusion cell and an upper, open cell. A normal saline solution was added to the lower diffusion cell, abutting the subcutaneous side of the skin, and the test composition comprising a solution of active drug in the carrier at indicated formulation was added to the diffusion cell abutting the epidermal side of the skin.
This cell assembly was kept in a constant-temperature room at about 31°C. At appropriate intervals, each diffusion cell assembly was opened and the diffusate from the cell abutting the subcutaneous side of the skin was withdrawn. Drug active in the diffusate was measured using standard analytical techniques. Each trial was run on a separate sample of human skin.

For `Nc1nc2c(ncn2COCCO)c(=O)[nH]1` [9-(2-hydroxyethoxymethyl) guanine], the “solubility in lipophilic solvent systems” value in series [1] (lipophilic solvent systems) is given as “almost totally insoluble”. Moreover, the solubility in water result in series [1] (water) is reported as “slightly soluble”. Further, the “Penetration (relative transport across human epidermis in vitro)” value in series [2] is recorded as “significantly enhanced”.
